Experimental data as given in publication PMC5441580, “GPR40 partial agonist MK-2305 lower fasting glucose in the Goto Kakizaki rat via suppression of endogenous glucose production” (PLoS ONE, 2017).
Values joined by “and” are separate entries in the source; they are usually repeats but may differ in a detail not shown here. Identical values can stand only once.

Assays:
human GPR43 (FFAR2) = target: T1, human GPR43 (FFAR2) (Homo sapiens, UniProt O15552); test: cAMP (LANCE) functional assay, CHO cells expressing human GPR43; type: cell-based
T1 construct: expressed in transfected cells
T1 sequence (O15552 1-330): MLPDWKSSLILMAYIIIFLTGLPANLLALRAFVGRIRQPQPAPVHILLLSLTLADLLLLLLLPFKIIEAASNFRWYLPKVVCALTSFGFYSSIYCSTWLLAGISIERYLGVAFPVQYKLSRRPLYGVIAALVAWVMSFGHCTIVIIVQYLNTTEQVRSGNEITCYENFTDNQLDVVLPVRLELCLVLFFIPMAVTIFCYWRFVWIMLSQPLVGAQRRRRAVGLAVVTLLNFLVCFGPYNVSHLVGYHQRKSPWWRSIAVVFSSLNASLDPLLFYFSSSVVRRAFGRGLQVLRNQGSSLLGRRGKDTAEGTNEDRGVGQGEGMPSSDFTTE
Protocol: CHO cells stably expressing human GPR41 or human GPR43 were harvested with non-enzymatic cell dissociation buffer and re-suspended in LANCE stimulation buffer (prepared as described by PE) at 0.25 million cells per ml (3.3 million cells per ml for GPR43) and 6 μl was then plated into each well of a 384-well Culturplate. Compounds were serially diluted in DMSO and then diluted further into stimulation buffer containing 2 μM forskolin (Sigma) at 2-times final concentration in the assay. 6 μl of the diluted compounds were then added to the assay plate and the plate incubated for 60 mins at room temperature. After the incubation, 12 μl of detection reagent (prepared as described by PE) was added to each well and the plates incubated one additional hour at room temperature. After the final incubation, the plates were read in a Perkin Elmer Envision reader with a method designed for Time-resolved fluorescence (TRF) assays (340 nm excitation, dual emission 615 and 655 nm). For each assay, a cAMP standard curve plate was also included. All fluorescent readings (using the 655/615 nm ratio) were converted to cAMP concentration using the cAMP standard curve and the percent activity at each concentration of test compound was determined using 0% activation (basal activity) determined in those wells containing DMSO alone, while 100% activity was determined in wells containing a concentration of agonist know to maximally activate the receptor.

GK rats = test: endogenous glucose production in vivo, 2H/13C dual tracer, chronic treatment, GK rats; design: species or system rat; conditions: 10 mg/kg, individual animals
Protocol: To evaluate whether MK-2305 treatment produced an effect on EGP in vivo, a ^2H/^13C dual tracer approach was used to calculate EGP and its contributing sources. On the day of the study, GK rats were bled via tail snip, and blood glucose was measured via glucometer. Ambient glucose was measured at 8 A.M. and used to sort animals into treatment groups (n = 8 per group). 0.9% NaCl salinated D2O (Sigma-Aldrich, St. Louis, MO) was administered to all animals via IP injection at dose volume of 20 ml/kg. Animals were then placed in clean cages and food was removed. After a 5 hour fast, blood glucose was measured and animals were dosed PO with MK-2305 at 10 mg/kg (5 ml/kg) or vehicle (0.5% methylcellulose) immediately followed by 50 mg/kg [U-^13C] glucose (Sigma-Aldrich) IP at 5 ml/kg. Blood was collected via tail snip at time points from 60–150 min post treatment to measure blood glucose as well as endogenous (^12C-glucose) and exogenous (^13C-glucose) via GCMS. Following the last tail blood collection, rats were anesthetized with isoflurane and cardiac blood was collected into K2EDTA tubes (Becton, Dickinson and Co., Franklin Lakes, NJ).
The serially collected blood samples were analyzed for ^13C-glucose enrichment using GC-MS analysis. The % ^13C glucose enrichments were then combined with the total glucose readings to calculate the concentration of ^13C-glucose, and these values were modeled with a two-compartment model of whole body glucose metabolism to calculate the average EGP for the period from 0–150 minutes.
Terminal blood samples were analyzed for relative ^2H enrichment in plasma glucose using the monoacetone glucose method. Briefly, samples were extracted with 70% perchloric acid and centrifuged at 25,000 rcf for 10 min at 4°C. The supernatant was collected and the pH was adjusted to 6–8 using KOH. The samples were then lyophilized overnight. To convert plasma glucose to monoacetone glucose (MAG), acetone and concentrated sulfuric acid were added to the lyophilized samples and stirred for 4 hours at room temperature. Water was then added and the pH adjusted to 2.0 with 3M Na2CO3. Samples were stirred moderately for 18 hours at room temperature, the pH was adjusted to 7 with 3M Na2CO3, and the samples were completely dried by speed vacuum concentration. The resulting MAG samples were then extracted in hot ethyl acetate, dried overnight under a stream of N2 gas, purified using Discovery DSC-18 SPE columns (6 ml, 1 g bed weight), and freeze dried. […] The ^2H NMR spectra of the MAG samples were then analyzed using in–house developed Matlab (The Mathworks Inc, Natick, MA) to model the NMR peaks with a Lorentzian line shape, and the results were used to calculate integrals for each of the seven NMR resonances in the MAG spectrum. […]

O=C1NC(=O)C(C2CCOc3cc(Oc4ccc(C(F)(F)F)cc4Cl)ccc32)S1 (stereo not drawn) [MK-2305]
% Activation (human GPR43 (FFAR2); @ 25 μM): 61 @ 25 μM % and 61%
% Effect (human GPR43 (FFAR2); Dose 1.267 nM): -23%
% Effect (human GPR43 (FFAR2); Dose 3.801 nM): -37%
% Effect (human GPR43 (FFAR2); Dose 34.208 nM): -32%
% Effect (human GPR43 (FFAR2); Dose 102.624 nM): 25%
% Effect (human GPR43 (FFAR2); Dose 307.872 nM): -78%
% Effect (human GPR43 (FFAR2); Dose 923.617 nM): -34%
% Effect (human GPR43 (FFAR2); Dose 2770.85 nM): -39%
% Effect (human GPR43 (FFAR2); Dose 8312.55 nM): -23%
% Effect (human GPR43 (FFAR2); Dose 24938 nM): 61%
EC50 (human GPR43 (FFAR2); cAMP, CHO cells expressing human GPR43): > 25 µM
Glucose Production, GNG Glycerol (GK rats): 9.192 µmol/kg/min and 6.083 µmol/kg/min and 7.998 µmol/kg/min and 7.217 µmol/kg/min and 7.842 µmol/kg/min and 8.659 µmol/kg/min and 3.467 µmol/kg/min and 8.678 µmol/kg/min
Glucose Production, GNG TCA (GK rats): 36.7882 µmol/kg/min and 38.5819 µmol/kg/min and 33.1225 µmol/kg/min and 31.7162 µmol/kg/min and 37.3311 µmol/kg/min and 31.203 µmol/kg/min and 37.9138 µmol/kg/min and 30.2175 µmol/kg/min
Glucose Production, GNG Total (GK rats): 45.9798 µmol/kg/min and 44.6651 µmol/kg/min and 41.1202 µmol/kg/min and 38.9333 µmol/kg/min and 45.1729 µmol/kg/min and 39.8625 µmol/kg/min and 41.3808 µmol/kg/min and 38.8959 µmol/kg/min
Glucose Production, Glycogenolysis (GK rats): 21.2266 µmol/kg/min and 17.3215 µmol/kg/min and 19.9927 µmol/kg/min and 20.4645 µmol/kg/min and 22.2628 µmol/kg/min and 19.9186 µmol/kg/min and 23.4568 µmol/kg/min and 19.0453 µmol/kg/min
